Each block holds one compound with its values, some of them ahead of it. Peptide text beside a SMILES is read from it.
Key:
CaMKIIδ-T287D [1] = target: T1, CaMKIIδ-T287D (Homo sapiens, UniProt Q13557, T287D); assay: CaMKIIδ-T287D-catalyzed phosphorylation of biotin-ahx-PLN; assay type: biochemical; conditions: biotin-ahx-PLN (1–30) as substrate, vs scrambled control peptide, n=7
CaMKIIδ-T287A [2] = assay: CaMKIIδ-catalyzed phosphorylation of Thr17-PLN at 0.5 μM Ca2+, immunoblot; assay type: biochemical; conditions: 0.5 μM free Ca2+
CaMKIIδ = assay: Overlay of 20-mer overlapping CaMKIIδ peptide arrays with biotinylated peptide; assay type: binding; conditions: 20-mer overlapping CaMKIIδ peptides on membranes
pThr17-PLN = assay type: cell-based; conditions: neonatal rat cardiomyocytes; Suppl. Fig. 6a–b
CaMKIIδ-T287A [3] = assay: In vitro CaMKII kinase assay; assay type: biochemical; conditions: CaM omitted; 32P incorporation into syntide, n=6
CaMKIIδ-T287A [4] = assay: Immunoprecipitation of CaM with CaMKIIδ-T287A; assay type: binding; conditions: immunoprecipitation in the presence of CaM, n=15
CaMKIIδ-T287D [5] = target: T1, CaMKIIδ-T287D; conditions: compared with AKAP18δ-N (55–98), Suppl. Fig. 2j–k
CaMKIIδ-T287D [6] = target: T1, CaMKIIδ-T287D; assay: In vitro CaMKII kinase assay; assay type: biochemical; conditions: 32P incorporation into syntide; compared among AKAP18δ-N sequences
CaM [7] = target: T2, CaM (Homo sapiens, UniProt P0DP23); assay: SPR of immobilized biotin-ahx-AKAP18δ; assay type: binding
Ca^2+/CaM = assay: ELISA-based binding of biotinylated peptide to CaM-coated wells; conditions: biotinylated peptide vs scrambled control, n=6
CaM [8] = target: T2, CaM; assay: CaM-agarose precipitation in the presence of Ca2+, immunoblot; assay type: binding; conditions: Suppl. Fig. 4b–c

T1 sequence (Q13557 whole entry T287D): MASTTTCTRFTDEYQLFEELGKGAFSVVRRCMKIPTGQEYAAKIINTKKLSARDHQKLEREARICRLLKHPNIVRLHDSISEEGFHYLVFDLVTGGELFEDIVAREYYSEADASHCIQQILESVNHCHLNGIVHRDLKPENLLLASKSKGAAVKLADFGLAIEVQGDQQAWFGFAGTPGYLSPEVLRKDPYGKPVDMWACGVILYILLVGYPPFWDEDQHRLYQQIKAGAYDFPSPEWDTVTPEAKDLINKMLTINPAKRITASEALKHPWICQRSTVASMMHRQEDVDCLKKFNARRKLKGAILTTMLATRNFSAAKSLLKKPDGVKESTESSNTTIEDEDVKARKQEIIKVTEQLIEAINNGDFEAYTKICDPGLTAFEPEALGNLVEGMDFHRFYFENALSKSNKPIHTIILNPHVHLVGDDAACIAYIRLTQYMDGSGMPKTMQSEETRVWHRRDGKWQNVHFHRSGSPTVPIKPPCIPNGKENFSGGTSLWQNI

SMILES: CC[C@H](C)[C@H](NC(=O)[C@@H]1CCCN1C(=O)[C@@H](NC(=O)[C@H](CO)NC(=O)[C@H](CC(C)C)NC(=O)[C@H](Cc1ccccc1)NC(=O)[C@H](Cc1ccc(O)cc1)NC(=O)[C@H](CC(N)=O)NC(=O)[C@@H]1CCCN1C(=O)[C@H](CCC(N)=O)NC(=O)[C@H](Cc1ccc(O)cc1)NC(=O)[C@H](CC(=O)O)NC(=O)[C@H](CCCCN)NC(=O)[C@H](CCCCN)NC(=O)[C@H](C)NC(=O)[C@H](CCCCN)NC(=O)[C@H](CCCCN)NC(=O)[C@H](CCCNC(=N)N)NC(=O)[C@H](CCCCN)NC(=O)[C@H](CCCCN)NC(=O)[C@@H](NC(=O)[C@H](Cc1c[nH]cn1)NC(=O)[C@H](CC(=O)O)NC(=O)[C@H](CC(N)=O)NC(=O)[C@H](CCCNC(=N)N)NC(=O)[C@H](CC(=O)O)NC(=O)CNC(=O)[C@H](CCCNC(=N)N)NC(=O)[C@H](CC(N)=O)NC(=O)[C@H](CCC(=O)O)NC(=O)[C@H](CCCCN)NC(=O)[C@H](CO)NC(=O)[C@H](CCCNC(=N)N)NC(=O)[C@H](CCCCN)NC(=O)[C@@H]1CCCN1C(=O)[C@H](CC(N)=O)NC(=O)CNC(=O)[C@H](CCC(N)=O)NC(=O)[C@@H]1CCCN1C(=O)[C@@H](NC(=O)[C@H](CC(N)=O)NC(=O)CNC(=O)[C@H](CCC(N)=O)NC(=O)[C@@H]1CCCN1)C(C)C)C(C)C)[C@@H](C)CC)C(=O)O [AKAP18δ-N (55–98)]
CaMKIIδ-T287D-catalyzed phosphorylation of Thr17 in PLN (CaMKIIδ-T287D [1]): reduced

CaMKIIδ binding on peptide arrays (CaMKIIδ): too weak or dynamic to be detected | substrate phosphorylation by CaMKIIδ-T287A (CaMKIIδ-T287A [3]): increased substrate phosphorylation
SMILES: CC[C@H](C)[C@H](NC(=O)[C@H](CCC(N)=O)NC(=O)[C@H](Cc1ccc(O)cc1)NC(=O)[C@H](CC(C)C)NC(=O)[C@@H](NC(=O)[C@H](CCC(=O)O)NC(=O)[C@H](CCC(=O)O)NC(=O)CNC(=O)[C@H](Cc1ccccc1)NC(=O)[C@H](CCCNC(=N)N)NC(=O)[C@H](Cc1c[nH]cn1)NC(=O)[C@H](CC(=O)O)NC(=O)[C@@H](NC(=O)[C@H](Cc1ccccc1)NC(=O)[C@H](CCC(N)=O)NC(=O)[C@H](CCC(=O)O)NC(=O)[C@H](Cc1ccc(O)cc1)NC(=O)[C@H](CC(C)C)NC(=O)CNC(=O)[C@@H]1CCCN1C(=O)[C@H](CCC(=O)O)NC(=O)[C@@H](NC(=O)[C@H](CCCCN)NC(=O)[C@H](CCCNC(=N)N)NC(=O)[C@@H](NC(=O)CNC(=O)[C@H](CCCCN)NC(=O)[C@@H](N)CCCCN)C(C)C)[C@@H](C)CC)[C@@H](C)CC)[C@@H](C)CC)C(=O)N[C@@H](CC(=O)O)C(=O)O [AKAP18δ-C]
Thr17-PLN phosphorylation by CaMKIIδ-T287A (CaMKIIδ-T287A [2]): further increased Thr17-PLN phosphorylation in the presence of either AKAP18δ-C (tendency) | pThr17-PLN level (pThr17-PLN): augmented | trapping of CaM to CaMKIIδ-T287A (CaMKIIδ-T287A [4]): induced trapping of CaM | cytotoxicity (and changes at basal level) (cardiomyocytes): No cytotoxicity

SPR binding to CaMKIIδ-T287D (in words) (CaMKIIδ-T287D [5]): bound strongly | effect on CaMKIIδ-T287D activity (in words) (CaMKIIδ-T287D [6]): inhibitory | kon (CaM [7]; read-out: association rate constant (ka)): 130 M⁻¹ s⁻¹ | koff (CaM [7]; read-out: dissociation rate constant (kd)): 0.00053 s⁻¹ | CaM binding, ELISA-based assay (Ca^2+/CaM): confirmed | precipitation with CaM-agarose (CaM [8]): precipitated with CaM-agarose
SMILES: CC[C@H](C)[C@H](NC(=O)[C@@H]1CCCN1C(=O)[C@@H](NC(=O)[C@H](CO)NC(=O)[C@H](CC(C)C)NC(=O)[C@H](Cc1ccccc1)NC(=O)[C@H](Cc1ccc(O)cc1)NC(=O)[C@H](CC(N)=O)NC(=O)[C@@H]1CCCN1C(=O)[C@H](CCC(N)=O)NC(=O)[C@H](Cc1ccc(O)cc1)NC(=O)[C@H](CC(=O)O)NC(=O)[C@H](CCCCN)NC(=O)[C@H](CCCCN)NC(=O)[C@H](C)NC(=O)[C@H](CCCCN)NC(=O)[C@H](CCCCN)NC(=O)[C@H](CCCNC(=N)N)NC(=O)[C@H](CCCCN)NC(=O)[C@@H](N)CCCCN)[C@@H](C)CC)C(=O)O [AKAP18δ-N (79–98)] (H-KKRKKAKKDYQPNYFLSIPI-OH; N-terminus and C-terminus assumed)
